Assay results published in ChEMBL document CHEMBL5055646, “Discovery of novel BTK PROTACs for B-Cell lymphomas” (Eur J Med Chem, 2021).

Experiments:
[1] = biological target: T1, Tyrosine-protein kinase BTK (Homo sapiens, UniProt Q06187); test: Inhibition of full length N-terminal GST fusion tagged human BTK expressed in baculovirus expression system at 50 nM using FAM-P2 peptide solution as substrate incubated for 10 mins in presence of ATP by microplate reader assay relative to control
[2] = biological target: T1, Tyrosine-protein kinase BTK; test: Inhibition of full length N-terminal GST fusion tagged human BTK expressed in baculovirus expression system at 500 nM using FAM-P2 peptide solution as substrate incubated for 10 mins in presence of ATP by microplate reader assay
[3] = biological target: T2, Protein cereblon/Tyrosine-protein kinase BTK (Homo sapiens, UniProt Q06187+Q96SW2); test: Protac activity at BTK/CRBN in human JeKo-1 cells assessed as induction of BTK degradation at 100 nM measured after 1 hr by Western blot analysis relative to control; format: cell-based
Target sequence in this assay (Q06187 2-659 limits assumed): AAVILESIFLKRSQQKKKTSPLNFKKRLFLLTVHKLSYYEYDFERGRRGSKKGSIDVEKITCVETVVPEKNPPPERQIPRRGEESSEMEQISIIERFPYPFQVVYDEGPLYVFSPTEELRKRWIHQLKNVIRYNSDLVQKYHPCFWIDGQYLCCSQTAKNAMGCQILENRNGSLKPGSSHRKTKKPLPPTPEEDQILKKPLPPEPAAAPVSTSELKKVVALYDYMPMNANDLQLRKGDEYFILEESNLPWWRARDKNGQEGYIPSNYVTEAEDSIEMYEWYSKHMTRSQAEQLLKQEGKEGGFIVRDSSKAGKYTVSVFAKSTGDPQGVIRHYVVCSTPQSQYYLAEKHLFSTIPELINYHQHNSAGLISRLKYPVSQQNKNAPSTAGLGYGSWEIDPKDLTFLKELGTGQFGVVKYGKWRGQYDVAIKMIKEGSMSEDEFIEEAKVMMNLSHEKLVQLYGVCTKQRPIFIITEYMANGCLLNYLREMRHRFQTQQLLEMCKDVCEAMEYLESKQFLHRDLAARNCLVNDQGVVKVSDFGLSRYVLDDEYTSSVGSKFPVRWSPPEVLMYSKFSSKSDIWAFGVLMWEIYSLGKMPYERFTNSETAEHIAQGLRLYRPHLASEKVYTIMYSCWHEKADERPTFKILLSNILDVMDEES
Target sequence in this assay (Q96SW2 whole entry partner, the tested form may be a part): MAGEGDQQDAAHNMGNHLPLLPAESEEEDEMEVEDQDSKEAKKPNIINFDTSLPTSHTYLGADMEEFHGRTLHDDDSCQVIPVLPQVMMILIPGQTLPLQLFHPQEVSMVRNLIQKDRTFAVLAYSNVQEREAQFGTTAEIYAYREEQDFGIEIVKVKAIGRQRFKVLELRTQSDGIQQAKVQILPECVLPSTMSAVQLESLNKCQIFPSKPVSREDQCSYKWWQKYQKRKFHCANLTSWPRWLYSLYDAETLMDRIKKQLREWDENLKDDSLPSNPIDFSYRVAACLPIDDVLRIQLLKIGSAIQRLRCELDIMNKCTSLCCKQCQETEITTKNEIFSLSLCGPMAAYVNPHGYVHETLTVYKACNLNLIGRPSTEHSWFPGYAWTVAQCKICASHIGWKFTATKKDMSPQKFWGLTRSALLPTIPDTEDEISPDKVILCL

[4] = biological target: T1, Tyrosine-protein kinase BTK; test: Inhibition of full length N-terminal GST fusion tagged human BTK expressed in baculovirus expression system using FAM-P2 peptide solution as substrate incubated for 10 mins in presence of ATP by microplate reader assay
TMD8 [5] = test: cells; details: Homo sapiens, TMD8, 72 h
[6] = biological target: T2, Protein cereblon/Tyrosine-protein kinase BTK; test: Protac activity at BTK/CRBN in human JeKo-1 cells assessed as induction of BTK degradation measured after 1 hr by Western blot analysis; format: cell-based
Target sequence in this assay (Q06187 whole entry, the tested form may be a part): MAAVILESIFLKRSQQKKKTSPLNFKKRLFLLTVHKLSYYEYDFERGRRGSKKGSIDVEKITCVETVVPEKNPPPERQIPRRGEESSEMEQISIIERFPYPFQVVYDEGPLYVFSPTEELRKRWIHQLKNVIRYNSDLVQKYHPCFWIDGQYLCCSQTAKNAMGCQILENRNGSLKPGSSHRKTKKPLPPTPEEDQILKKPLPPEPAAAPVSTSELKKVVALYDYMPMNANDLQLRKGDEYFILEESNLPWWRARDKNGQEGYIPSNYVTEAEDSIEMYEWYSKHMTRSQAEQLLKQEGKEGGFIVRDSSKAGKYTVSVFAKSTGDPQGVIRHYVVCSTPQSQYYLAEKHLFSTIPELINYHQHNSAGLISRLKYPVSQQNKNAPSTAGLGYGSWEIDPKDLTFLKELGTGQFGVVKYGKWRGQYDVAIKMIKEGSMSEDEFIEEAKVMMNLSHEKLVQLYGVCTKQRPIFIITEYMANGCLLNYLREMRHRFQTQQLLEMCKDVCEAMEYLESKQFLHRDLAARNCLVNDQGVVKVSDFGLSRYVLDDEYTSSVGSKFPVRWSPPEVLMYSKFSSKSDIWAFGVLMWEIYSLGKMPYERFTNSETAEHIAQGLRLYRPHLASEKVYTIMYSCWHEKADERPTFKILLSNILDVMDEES
Target sequence in this assay (Q96SW2 whole entry, the tested form may be a part): as the sequence (Q96SW2 whole entry partner, the tested form may be a part) above

[7] = biological target: T2, Protein cereblon/Tyrosine-protein kinase BTK; test: Protac activity at BTK/CRBN in human JeKo-1 cells assessed as maximal BTK degradation measured after 1 hr by Western blot analysis relative to control; format: cell-based
Target sequence in this assay (Q06187 2-659 limits assumed): as the sequence (Q06187 2-659 limits assumed) above
Target sequence in this assay (Q96SW2 whole entry partner, the tested form may be a part): as the sequence (Q96SW2 whole entry partner, the tested form may be a part) above

[8] = biological target: Protein cereblon/Tyrosine-protein kinase BTK (Homo sapiens, UniProt Q06187+Q96SW2, C481S); test: Protac activity at BTK C481S mutant/CRBN in human TMD8 cells assessed as induction of BTK degradation measured after 1 hr by Western blot analysis; format: cell-based
[9] = tested on: Protein cereblon/Tyrosine-protein kinase BTK (Homo sapiens), Q06187+Q96SW2 [C481S]; test: Protac activity at BTK C481S mutant/CRBN in human TMD8 cells assessed as maximal BTK degradation measured after 1 hr by Western blot analysis relative to control; format: cell-based
TMD8 [10] = test: cells; details: Homo sapiens, TMD8, 72 h; remark: listed apart in the source
[11] = Half life in human plasma; format: ADME, cell-free
[12] = Apparent permeability across apical to basolateral side in human Caco-2 cells; format: ADME, cell-based
[13] = Efflux ratio of apparent permeability from basolateral to apical side over apical to basolateral side in human Caco-2 cells; format: ADME, cell-based
[14] = Apparent permeability across basolateral to apical side in human Caco-2 cells; format: ADME, cell-based

Sequence of Protein cereblon/Tyrosine-protein kinase BTK (Homo sapiens, UniProt Q06187+Q96SW2, C481S) (Q06187 2-659 C481S limits assumed, stated change not applied): as the sequence (Q06187 2-659 limits assumed) above, with C480S counted along it
Sequence of Protein cereblon/Tyrosine-protein kinase BTK (Homo sapiens, UniProt Q06187+Q96SW2, C481S) (Q96SW2 whole entry, stated change not applied): as the sequence (Q96SW2 whole entry partner, the tested form may be a part) above
T1 sequence (Q06187 whole entry, the tested form may be a part): as the sequence (Q06187 whole entry, the tested form may be a part) above

Row | inhibition [1] | inhibition [2] | IC50 [4] | Structure (SMILES) | Activity [3] | IC50 (TMD8 [5]) | DC50 [6] | %max [7] | DC50 [8] | %max [9] | IC50 (TMD8 [10]) | half-life [11] | Papp A→B [12] | efflux ratio [13] | Papp B→A [14]
1 | 7.5% | 21.5% | 3780 nM | O=C(CNc1ncnc2[nH]cc(C(=O)c3ccc(Oc4ccccc4)cc3Cl)c12)NCCOCCOCCNc1cccc2c1C(=O)N(C1CCC(=O)NC1=O)C2=O (stereo not drawn) | 33% |  |  |  |  |  |  |  |  |  | 
2 | 7% | 39% |  | O=C(CNc1ncnc2[nH]cc(C(=O)c3ccc(Oc4ccccc4)cc3Cl)c12)NCCOCCOCCOCCOCCOCCOCCOCCNc1cccc2c1C(=O)N(C1CCC(=O)NC1=O)C2=O (stereo not drawn) | 14.7% |  |  |  |  |  |  |  |  |  | 
3 | 1.8% | 9.3% |  | O=C(CNc1ncnc2[nH]cc(C(=O)c3ccc(Oc4ccccc4)cc3Cl)c12)NCCCCNc1cccc2c1C(=O)N(C1CCC(=O)NC1=O)C2=O (stereo not drawn) | 24.9% |  |  |  |  |  |  |  |  |  | 
4 | 4.9% | 10.9% | 5970 nM | CCOC(=O)CNc1ncnc2[nH]cc(C(=O)c3ccc(Oc4ccccc4)cc3Cl)c12 |  |  |  |  |  |  |  |  |  |  | 
5 | 2.4% | 10.9% |  | O=C(CNc1ncnc2[nH]cc(C(=O)c3ccc(Oc4ccccc4)cc3Cl)c12)NCCNc1cccc2c1C(=O)N(C1CCC(=O)NC1=O)C2=O (stereo not drawn) |  |  |  |  |  |  |  |  |  |  | 
6 | 75% | 96.2% | 23 nM | O=C1CCC(N2C(=O)c3cccc(NCCCCNC(=O)N[C@H]4CC[C@@H](Nc5ncnc6[nH]cc(C(=O)c7ccc(Oc8ccccc8)cc7Cl)c56)CC4)c3C2=O)C(=O)N1 (stereo partly drawn) | 6.8% |  |  |  |  |  |  |  |  |  | 
7 |  |  | 407 nM | CCNC(=O)CNc1ncnc2[nH]cc(C(=O)c3ccc(Oc4ccccc4)cc3Cl)c12 |  |  |  |  |  |  |  |  |  |  | 
8 | 94.2% | 99.5% | 4.3 nM | N[C@H]1CC[C@@H](Nc2ncnc3[nH]cc(C(=O)c4ccc(Oc5ccccc5)cc4Cl)c23)CC1 |  |  |  |  |  |  |  |  |  |  | 
9 | 44.2% | 85.1% | 81.4 nM | O=C(O)CNc1ncnc2[nH]cc(C(=O)c3ccc(Oc4ccccc4)cc3Cl)c12 |  |  |  |  |  |  |  |  |  |  | 
10 | 82.1% | 97.4% | 15.5 nM | O=C1CCC(N2C(=O)c3cccc(NCCOCCOCCNC(=O)N[C@H]4CC[C@@H](Nc5ncnc6[nH]cc(C(=O)c7ccc(Oc8ccccc8)cc7Cl)c56)CC4)c3C2=O)C(=O)N1 (stereo partly drawn) | 22.8% |  |  |  |  |  |  |  |  |  | 
11 | 8.6% | 21.6% | 1930 nM | O=C(CNc1ncnc2[nH]cc(C(=O)c3ccc(Oc4ccccc4)cc3Cl)c12)NCCOCCOCCOCCNc1cccc2c1C(=O)N(C1CCC(=O)NC1=O)C2=O (stereo not drawn) | 56.2% |  | 28.5 nM | 67.1% |  |  |  |  |  |  | 
12 |  |  | 25.2 nM | CCNC(=O)N[C@H]1CC[C@@H](Nc2ncnc3[nH]cc(C(=O)c4ccc(Oc5ccccc5)cc4Cl)c23)CC1 |  |  |  |  |  |  |  |  |  |  | 

Row | Structure (SMILES) | inhibition [1] | inhibition [2] | IC50 [4] | Activity [3] | IC50 (TMD8 [5]) | DC50 [6] | %max [7] | DC50 [8] | %max [9] | IC50 (TMD8 [10]) | half-life [11] | Papp A→B [12] | efflux ratio [13] | Papp B→A [14]
13 | O=C(CNc1ncnc2[nH]cc(C(=O)c3ccc(Oc4ccccc4)cc3Cl)c12)NCCOCCOCCOCCOCCOCCOCCNc1cccc2c1C(=O)N(C1CCC(=O)NC1=O)C2=O (stereo not drawn) | 10% | 42.5% | 1390 nM | 78.7% | 750 nM | 8.3 nM | 92.4% | 52.3 nM | 84.8% | 104 nM |  |  |  | 
14 | O=C1CCC(N2C(=O)c3cccc(NCCOCCOCCOCCOCCNC(=O)N[C@H]4CC[C@@H](Nc5ncnc6[nH]cc(C(=O)c7ccc(Oc8ccccc8)cc7Cl)c56)CC4)c3C2=O)C(=O)N1 (stereo partly drawn) | 32.6% | 74.9% | 46.9 nM | 88.8% | 290 nM | 12.1 nM | 78% | 37.9 nM | 83.5% | 39.5 nM |  |  |  | 
15 | O=C(CNc1ncnc2[nH]cc(C(=O)c3ccc(Oc4ccccc4)cc3Cl)c12)NCCOCCOCCOCCOCCOCCNc1cccc2c1C(=O)N(C1CCC(=O)NC1=O)C2=O (stereo not drawn) | 5.9% | 35.5% | 1210 nM | 64.2% | 1690 nM | 8.1 nM | 72.4% | 80.4 nM | 88.4% | 63.3 nM | 5.34 h |  |  | 
16 | O=C1CCC(N2C(=O)c3cccc(NCCOCCOCCOCCNC(=O)N[C@H]4CC[C@@H](Nc5ncnc6[nH]cc(C(=O)c7ccc(Oc8ccccc8)cc7Cl)c56)CC4)c3C2=O)C(=O)N1 (stereo partly drawn) | 73.5% | 95.2% | 22.3 nM | 44.1% |  | 32.3 nM | 76.9% | 30.1 nM | 84.3% |  |  |  |  | 
17 | O=C1CCC(N2C(=O)c3cccc(NCCOCCOCCOCCOCCOCCNC(=O)N[C@H]4CC[C@@H](Nc5ncnc6[nH]cc(C(=O)c7ccc(Oc8ccccc8)cc7Cl)c56)CC4)c3C2=O)C(=O)N1 (stereo partly drawn) | 58.4% | 90% | 56.4 nM | 93.7% | 254 nM | 41.9 nM | 93% | 42.9 nM | 90.7% | 45.7 nM | 3.55 h | < 5.3 ×10⁻⁶ cm/s | > 1.4 | 7.5 ×10⁻⁶ cm/s
18 | O=C(CNc1ncnc2[nH]cc(C(=O)c3ccc(Oc4ccccc4)cc3Cl)c12)NCCOCCOCCOCCOCCNc1cccc2c1C(=O)N(C1CCC(=O)NC1=O)C2=O (stereo not drawn) | 5.6% | 35.6% | 2200 nM | 55.6% |  | 9.4 nM | 66.5% | 52.7 nM | 68.6% |  |  |  |  | 
